The kinase profiling compilation of Christmann-Franck et al. (2016)

Tests used:
Test in all cases: KINOMEscan competition binding
Details in all cases: compound 10.0 µM; call rule not given here
MARK2 (human) = MARK2 (human) (UniProt Q7KZI7)
BMX (human) = BMX (human) (UniProt P51813)
ACVRL1 (human) = ACVRL1 (human) (UniProt P37023)
FLT1 (human) = FLT1 (human) (UniProt P17948)
AAK1 (human) = AAK1 (human) (UniProt Q2M2I8)
PDGFRA (human) = PDGFRA (human) (UniProt P16234)
DAPK3 (human) = DAPK3 (human) (UniProt O43293)
FLT4 (human) = FLT4 (human) (UniProt P35916)
Sequence of FLT4 (human) (P35916 whole entry, looked up): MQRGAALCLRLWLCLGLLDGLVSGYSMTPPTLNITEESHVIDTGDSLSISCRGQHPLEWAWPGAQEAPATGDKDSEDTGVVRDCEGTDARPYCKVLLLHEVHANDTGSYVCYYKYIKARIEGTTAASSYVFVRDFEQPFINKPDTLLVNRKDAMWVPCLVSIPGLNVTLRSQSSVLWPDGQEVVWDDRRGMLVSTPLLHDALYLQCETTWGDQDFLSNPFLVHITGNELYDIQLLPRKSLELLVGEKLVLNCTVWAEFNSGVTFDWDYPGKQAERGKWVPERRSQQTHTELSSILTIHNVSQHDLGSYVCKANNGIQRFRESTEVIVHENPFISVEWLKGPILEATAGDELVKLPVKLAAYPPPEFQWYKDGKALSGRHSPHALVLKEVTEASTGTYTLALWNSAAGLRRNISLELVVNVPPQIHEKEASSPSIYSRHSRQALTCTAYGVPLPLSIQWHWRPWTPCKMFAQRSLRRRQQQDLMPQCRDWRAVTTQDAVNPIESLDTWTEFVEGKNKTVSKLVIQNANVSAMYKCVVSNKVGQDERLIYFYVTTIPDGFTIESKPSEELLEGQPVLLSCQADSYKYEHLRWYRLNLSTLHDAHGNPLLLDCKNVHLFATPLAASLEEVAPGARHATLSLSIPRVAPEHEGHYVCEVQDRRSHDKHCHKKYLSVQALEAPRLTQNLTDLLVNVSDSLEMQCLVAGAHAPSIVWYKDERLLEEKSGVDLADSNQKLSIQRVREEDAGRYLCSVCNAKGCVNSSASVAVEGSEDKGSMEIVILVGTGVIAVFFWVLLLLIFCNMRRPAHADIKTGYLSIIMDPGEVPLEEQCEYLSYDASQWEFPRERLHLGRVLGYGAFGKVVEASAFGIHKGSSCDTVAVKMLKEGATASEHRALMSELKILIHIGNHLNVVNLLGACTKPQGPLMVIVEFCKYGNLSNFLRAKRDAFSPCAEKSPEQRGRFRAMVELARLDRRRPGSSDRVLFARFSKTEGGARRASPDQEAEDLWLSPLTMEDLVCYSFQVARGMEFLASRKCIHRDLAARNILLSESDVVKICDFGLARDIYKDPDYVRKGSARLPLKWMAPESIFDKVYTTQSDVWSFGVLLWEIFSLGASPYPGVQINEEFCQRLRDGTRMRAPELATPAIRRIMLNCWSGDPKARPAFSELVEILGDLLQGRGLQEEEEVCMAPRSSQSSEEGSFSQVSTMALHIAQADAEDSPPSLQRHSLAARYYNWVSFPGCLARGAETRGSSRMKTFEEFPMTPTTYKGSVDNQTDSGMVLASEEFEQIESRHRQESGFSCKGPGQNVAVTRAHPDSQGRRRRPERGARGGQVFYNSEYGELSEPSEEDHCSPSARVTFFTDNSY

CAMKK1 (human) = CAMKK1 (human) (UniProt Q8N5S9)
MERTK (human) = MERTK (human) (UniProt Q12866)
MAP4K3 (human) = MAP4K3 (human) (UniProt Q8IVH8)
CAMK1D (human) = CAMK1D (human) (UniProt Q8IU85)
NTRK3 (human) = NTRK3 (human) (UniProt Q16288)
[1] = molecular target: TYK2 JH1 catalytic (human) (UniProt P29597)
PLK4 (human) = PLK4 (human) (UniProt O00444)
CSNK1G2 (human) = CSNK1G2 (human) (UniProt P78368)
PDGFRB (human) = PDGFRB (human) (UniProt P09619)
STK24 (human) = STK24 (human) (UniProt Q9Y6E0)
SIK2 (human) = SIK2 (human) (UniProt Q9H0K1)
Sequence of SIK2 (human) (Q9H0K1 whole entry, looked up): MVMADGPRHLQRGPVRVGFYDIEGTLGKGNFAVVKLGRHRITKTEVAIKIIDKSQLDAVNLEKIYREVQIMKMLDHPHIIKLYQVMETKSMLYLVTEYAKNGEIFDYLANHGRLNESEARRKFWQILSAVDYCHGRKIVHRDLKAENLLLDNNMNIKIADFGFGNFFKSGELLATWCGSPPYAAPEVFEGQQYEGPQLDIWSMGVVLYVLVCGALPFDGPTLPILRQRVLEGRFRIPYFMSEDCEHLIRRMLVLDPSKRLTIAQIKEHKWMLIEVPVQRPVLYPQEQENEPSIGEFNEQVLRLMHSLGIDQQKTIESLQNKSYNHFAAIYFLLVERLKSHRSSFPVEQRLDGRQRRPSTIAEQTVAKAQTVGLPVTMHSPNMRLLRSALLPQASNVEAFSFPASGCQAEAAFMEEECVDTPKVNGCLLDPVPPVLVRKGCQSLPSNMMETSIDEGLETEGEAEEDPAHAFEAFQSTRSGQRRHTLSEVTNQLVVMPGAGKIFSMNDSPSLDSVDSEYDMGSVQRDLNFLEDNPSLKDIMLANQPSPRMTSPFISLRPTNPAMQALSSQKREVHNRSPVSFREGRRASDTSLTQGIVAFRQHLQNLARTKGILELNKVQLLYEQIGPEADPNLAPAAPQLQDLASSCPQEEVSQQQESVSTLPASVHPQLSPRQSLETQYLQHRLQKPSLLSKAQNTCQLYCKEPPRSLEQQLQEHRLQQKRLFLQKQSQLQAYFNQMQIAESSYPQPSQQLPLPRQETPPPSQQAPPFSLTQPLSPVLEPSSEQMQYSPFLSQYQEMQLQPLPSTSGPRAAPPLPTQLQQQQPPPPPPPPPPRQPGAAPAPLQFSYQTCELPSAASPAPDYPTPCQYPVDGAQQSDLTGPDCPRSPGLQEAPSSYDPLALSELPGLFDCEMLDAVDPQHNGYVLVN

YES1 (human) = YES1 (human) (UniProt P07947)
EPHB1 (human) = EPHB1 (human) (UniProt P54762)
PDPK1 (human) = PDPK1 (human) (UniProt O15530)
PRKAA1 (human) = PRKAA1 (human) (UniProt Q13131)
FYN (human) = FYN (human) (UniProt P06241)
BLK (human) = BLK (human) (UniProt P51451)
LCK (human) = LCK (human) (UniProt P06239)
SLK (human) = SLK (human) (UniProt Q9H2G2)
AURKB (human) = AURKB (human) (UniProt Q96GD4)
TLK1 (human) = TLK1 (human) (UniProt Q9UKI8)
MAP4K1 (human) = MAP4K1 (human) (UniProt Q92918)
MKNK2 (human) = MKNK2 (human) (UniProt Q9HBH9)
FER (human) = FER (human) (UniProt P16591)
MAPK8 (human) = MAPK8 (human) (UniProt P45983)
CSNK1G1 (human) = CSNK1G1 (human) (UniProt Q9HCP0)
EPHA8 (human) = EPHA8 (human) (UniProt P29322)
MET (human) = MET (human) (UniProt P08581)
SYK (human) = SYK (human) (UniProt P43405)
STK4 (human) = STK4 (human) (UniProt Q13043)
Sequence of STK4 (human) (Q13043 whole entry, looked up): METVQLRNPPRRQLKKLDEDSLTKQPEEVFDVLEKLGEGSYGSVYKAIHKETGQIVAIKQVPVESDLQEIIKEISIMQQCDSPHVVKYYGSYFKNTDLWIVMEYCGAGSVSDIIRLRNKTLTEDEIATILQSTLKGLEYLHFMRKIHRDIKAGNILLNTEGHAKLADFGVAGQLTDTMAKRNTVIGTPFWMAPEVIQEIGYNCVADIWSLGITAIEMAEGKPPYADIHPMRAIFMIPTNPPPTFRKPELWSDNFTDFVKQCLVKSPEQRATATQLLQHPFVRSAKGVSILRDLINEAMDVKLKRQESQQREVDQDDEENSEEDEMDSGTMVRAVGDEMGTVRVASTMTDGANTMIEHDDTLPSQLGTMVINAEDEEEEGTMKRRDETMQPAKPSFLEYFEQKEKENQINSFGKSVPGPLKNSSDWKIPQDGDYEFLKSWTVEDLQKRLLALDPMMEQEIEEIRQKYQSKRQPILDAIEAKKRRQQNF

ABL1 (human) = ABL1 (human) (UniProt P00519)
ABL2 (human) = ABL2 (human) (UniProt P42684)
ACVR2B (human) = ACVR2B (human) (UniProt Q13705)

Measured: kinase still bound, per cent of control

Sequence of FLT1 (human) (P17948 whole entry, looked up): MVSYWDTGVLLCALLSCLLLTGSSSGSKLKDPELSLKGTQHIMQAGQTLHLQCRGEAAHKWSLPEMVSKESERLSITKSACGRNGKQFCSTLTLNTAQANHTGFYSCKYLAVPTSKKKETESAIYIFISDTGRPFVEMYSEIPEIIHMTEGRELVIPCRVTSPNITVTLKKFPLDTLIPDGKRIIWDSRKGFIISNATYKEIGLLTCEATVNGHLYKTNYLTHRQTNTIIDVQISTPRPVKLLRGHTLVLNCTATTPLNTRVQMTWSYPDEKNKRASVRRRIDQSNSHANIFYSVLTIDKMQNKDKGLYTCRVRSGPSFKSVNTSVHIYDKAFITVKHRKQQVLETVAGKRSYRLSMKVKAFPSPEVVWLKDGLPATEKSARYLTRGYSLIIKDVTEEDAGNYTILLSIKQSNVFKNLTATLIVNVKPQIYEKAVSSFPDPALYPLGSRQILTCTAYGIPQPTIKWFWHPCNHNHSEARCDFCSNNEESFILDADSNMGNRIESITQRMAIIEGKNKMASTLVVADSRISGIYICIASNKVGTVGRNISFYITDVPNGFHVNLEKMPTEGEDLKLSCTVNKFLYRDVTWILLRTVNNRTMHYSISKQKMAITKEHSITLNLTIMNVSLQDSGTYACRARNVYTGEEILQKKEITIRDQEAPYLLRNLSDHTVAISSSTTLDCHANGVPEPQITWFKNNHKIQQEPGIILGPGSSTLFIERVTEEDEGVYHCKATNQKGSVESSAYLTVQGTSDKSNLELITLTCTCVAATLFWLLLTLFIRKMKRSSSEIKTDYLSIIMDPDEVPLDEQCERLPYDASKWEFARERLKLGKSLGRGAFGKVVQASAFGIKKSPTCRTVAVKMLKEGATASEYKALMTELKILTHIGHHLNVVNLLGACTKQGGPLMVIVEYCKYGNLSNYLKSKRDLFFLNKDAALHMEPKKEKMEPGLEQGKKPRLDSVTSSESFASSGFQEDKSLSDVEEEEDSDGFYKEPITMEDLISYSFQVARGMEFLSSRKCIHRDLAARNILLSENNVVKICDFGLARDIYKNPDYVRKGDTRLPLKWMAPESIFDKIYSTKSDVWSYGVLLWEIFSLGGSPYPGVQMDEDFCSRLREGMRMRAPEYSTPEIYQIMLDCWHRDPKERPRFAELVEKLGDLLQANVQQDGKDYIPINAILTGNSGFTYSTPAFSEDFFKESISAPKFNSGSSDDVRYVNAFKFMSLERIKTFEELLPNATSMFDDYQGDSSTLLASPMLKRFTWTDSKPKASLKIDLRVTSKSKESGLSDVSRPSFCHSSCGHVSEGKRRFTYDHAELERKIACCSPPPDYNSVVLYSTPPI
Sequence of MARK2 (human) (Q7KZI7 whole entry, looked up): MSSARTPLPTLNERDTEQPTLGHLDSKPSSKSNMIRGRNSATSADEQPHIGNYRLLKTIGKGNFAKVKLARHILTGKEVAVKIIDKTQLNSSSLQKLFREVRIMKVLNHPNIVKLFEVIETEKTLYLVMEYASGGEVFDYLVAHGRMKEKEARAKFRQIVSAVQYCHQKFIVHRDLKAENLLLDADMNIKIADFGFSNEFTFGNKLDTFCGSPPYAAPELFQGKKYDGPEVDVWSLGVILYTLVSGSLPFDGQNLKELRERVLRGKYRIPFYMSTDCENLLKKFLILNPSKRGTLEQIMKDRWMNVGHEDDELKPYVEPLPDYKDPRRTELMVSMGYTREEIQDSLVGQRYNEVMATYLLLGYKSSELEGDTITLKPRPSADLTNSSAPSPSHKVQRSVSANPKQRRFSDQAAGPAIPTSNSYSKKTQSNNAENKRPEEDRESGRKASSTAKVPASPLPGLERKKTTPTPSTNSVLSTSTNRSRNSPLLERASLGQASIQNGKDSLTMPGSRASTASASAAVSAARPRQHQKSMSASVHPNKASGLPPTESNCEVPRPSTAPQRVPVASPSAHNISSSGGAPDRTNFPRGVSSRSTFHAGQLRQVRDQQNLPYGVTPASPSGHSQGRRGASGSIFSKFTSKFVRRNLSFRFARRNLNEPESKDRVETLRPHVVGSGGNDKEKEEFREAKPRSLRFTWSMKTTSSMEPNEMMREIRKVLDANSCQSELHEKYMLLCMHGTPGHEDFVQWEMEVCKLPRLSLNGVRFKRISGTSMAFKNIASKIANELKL

c1ccc(-c2n[nH]cc2-c2ccnc3ccccc23)nc1
inactive: MARK2 (human) no effect | BMX (human) no effect | ACVRL1 (human) no effect | FLT1 (human) no effect | AAK1 (human) no effect | PDGFRA (human) no effect | DAPK3 (human) no effect | FLT4 (human) no effect | CAMKK1 (human) no effect | MERTK (human) no effect | MAP4K3 (human) no effect | CAMK1D (human) no effect | NTRK3 (human) no effect | [1] no effect | PLK4 (human) no effect | CSNK1G2 (human) no effect | PDGFRB (human) no effect | STK24 (human) no effect | SIK2 (human) no effect | YES1 (human) no effect | EPHB1 (human) no effect | PDPK1 (human) no effect | PRKAA1 (human) no effect | FYN (human) no effect | BLK (human) no effect | LCK (human) no effect | SLK (human) no effect | AURKB (human) no effect | TLK1 (human) no effect | MAP4K1 (human) no effect | MKNK2 (human) no effect | FER (human) no effect | MAPK8 (human) no effect | CSNK1G1 (human) no effect | EPHA8 (human) no effect | MET (human) no effect | SYK (human) no effect | STK4 (human) no effect

CC(=O)c1c(-c2ccncc2)[nH]c(-c2ccncc2)c1C
inactive: MARK2 (human) no effect | BMX (human) no effect | ACVRL1 (human) no effect | FLT1 (human) no effect | PDGFRA (human) no effect | DAPK3 (human) no effect | FLT4 (human) no effect | CAMKK1 (human) no effect | MERTK (human) no effect | MAP4K3 (human) no effect | CAMK1D (human) no effect | ABL1 (human) no effect | NTRK3 (human) no effect | [1] no effect | PLK4 (human) no effect | ABL2 (human) no effect | PDGFRB (human) no effect | STK24 (human) no effect | SIK2 (human) no effect | YES1 (human) no effect | EPHB1 (human) no effect | PDPK1 (human) no effect | PRKAA1 (human) no effect | FYN (human) no effect | BLK (human) no effect | LCK (human) no effect | SLK (human) no effect | AURKB (human) no effect | TLK1 (human) no effect | ACVR2B (human) no effect | MAP4K1 (human) no effect | FER (human) no effect | EPHA8 (human) no effect | SYK (human) no effect | STK4 (human) no effect
0%: CSNK1G1 (human)

CCS(=O)(=O)Nc1ccc2c(c1)[C@H](/C(=N/c1ccc(CN3CCCCC3)cc1)c1ccccc1)C(=O)N2
0.1%: FLT1 (human) | AAK1 (human) | FLT4 (human) | CAMKK1 (human) | MAP4K3 (human) | STK24 (human)
0.7%: CAMK1D (human)
0.75%: TLK1 (human)
0.8%: PDGFRA (human) | SIK2 (human)
inactive: CSNK1G2 (human) no effect | CSNK1G1 (human) no effect
0.3%: MARK2 (human) | MET (human)
2.1%: DAPK3 (human) | MKNK2 (human)
5.8%: PDPK1 (human)
1.4%: BMX (human)
0.5%: MAP4K1 (human)
0.4%: EPHA8 (human)
4.8%: ABL2 (human)
1.3%: SYK (human)
2.4%: ACVR2B (human)
0.6%: ABL1 (human)
0%: all other assays above
